{"source": "patent US20220235343A1", "about": "“NOVEL ADP-RIBOSYL CYCLASE AND INHIBITOR THEREOF” (INDUSTRIAL COOPERATION FOUNDATION CHONBUK NATIONAL …, priority 2019, published 2022)", "format_in_all_cases": "in vivo", "key": {"[1]": {"tested_on": "TGF-β1, fibronectin and collagen IV in kidney tissue", "assay": "Expression of TGF-β1, fibronectin and collagen IV in kidney tissue of renal disease mouse model (immunofluorescence)", "details": "STZ mice, DCQA i.p. every day for 6 weeks, FIG. 8", "procedure": "The change in the expression of TGF-β1, fibronectin and collagen IV in the kidney tissue of a renal disease mouse model was measured by the method reported by Kim S Y et al. [Kim S Y, Park K H, Gul R, Jang K Y, Kim U H. Am. J. Physiol. Renal Physiol. 296: F291-F297, 2009].\nSpecifically, 0.2 mL of 50 mM citrate buffer (pH 4.8) (control group and DCQA group) or 200 μL of 5 mg/mL streptozotocin (STZ, Sigma-Aldrich (USA)) dissolved in 50 mM citrate buffer (STZ group and STZ+DCQA group) was intraperitoneally injected to C57BL/6J mice. Blood glucose was measured from day 2 after the STZ injection and the mice whose blood glucose level was 300 mg/dL were divided into an STZ group and an STZ+DCQA group. […] In order to investigate the possibility as a therapeutic agent for a renal disease, the mouse was sacrificed and serum and kidney were taken. Some of the extracted kidney was fixed in 10% formalin. The kidney tissue fixed in 10% formalin was cut into kidney tissue sections on a slide glass using a cryostat microtome. The kidney tissue sections were washed with a TTBS (Tris-buffered saline (TBS) with 0.1% Tween 20) buffer and then incubated with a TTBS buffer containing 1% bovine serum albumin (BSA) for 1 hour. The tissues were reacted with primary antibodies (TGF-β1 (Santa Cruz, USA), fibronectin (Santa Cruz, USA) and collagen IV (Abcam, UK)) diluted in a TTBS buffer containing 1% bovine serum albumin (BSA) to 1:200 at 4° C. for 12 hours or longer. After washing the tissues that reacted with the primary antibodies 3 times with a TTBS buffer, they were reacted with FITC-labeled secondary antibodies diluted in a TTBS buffer to 1:200 in the dark at room temperature for 1 hour. Then, after washing 3 times with a TTBS buffer, a cover glass was attached using a mounting solution. The stained kidney tissue was observed using a fluorescence microscope (Carl Zeiss, Germany) for observing green fluorescence."}, "[2]": {"tested_on": "diabetic renal disease mouse model (STZ, C57BL/6J mice)", "assay": "Blood glucose, kidney-to-body weight ratio, creatinine clearance rate and urine albumin level in STZ renal disease mouse model", "details": "STZ+DCQA group vs STZ, DCQA 9 μg/mL 100 μL intraperitoneally every day for 6 weeks", "procedure": "The blood glucose, kidney-to-body weight ratio, creatinine clearance rate and urine albumin level in a renal disease mouse model were measured by the method reported by Kim S Y et al. [Kim S Y, Park K H, Gul R, Jang K Y, Kim U H. Am. J. Physiol. Renal Physiol. 296: F291-F297, 2009]\nSpecifically, 0.2 mL of 50 mM citrate buffer (pH 4.8) (control group and DCQA group) or 200 μL of 5 mg/mL streptozotocin (STZ, Sigma-Aldrich (USA)) dissolved in 50 mM citrate buffer (STZ group and STZ+DCQA group) was intraperitoneally injected to C57BL/6J mice. Blood glucose was measured from day 2 after the STZ injection and the mice whose blood glucose level was 300 mg/dL were divided into an STZ group and an STZ+DCQA group. […] On the last day, the mouse was put in a metabolic cage and urine was collected for 24 hours.\nThen, the body weight and blood glucose of the mouse were measured (FIG. 6A). In addition, in order to investigate the possibility as a therapeutic agent for a renal disease, the mouse was sacrificed and serum and kidney were taken. After measuring kidney-to-body weight ratio (FIG. 6B), some of the kidney was fixed in 10% formalin for fluorescent staining and H&E staining, and the remainder was subjected to ADPR cyclase activity and cADPR concentration measurement. Creatinine clearance rate was calculated by measuring the creatinine levels in urine and serum using a creatinine assay kit (Bioassay Systems, USA) (FIG. 6C), and urine albumin level was measured using an albumin assay kit (Bioassay Systems, USA) (FIG. 6D)."}, "[3]": {"tested_on": "hypertension mouse model (L-NAME, C57BL/6J mouse)", "assay": "Blood pressure and creatinine clearance rate in L-NAME hypertension mouse model", "details": "DCQA 9 μg/mL 100 μL intraperitoneally every day for 7 days", "procedure": "The blood pressure and creatinine clearance rate in a hypertension mouse model were measured by the method reported by Allagnat et al. [Allagnat F, Haefliger J A, Lambelet M, Longchamp A, Berard X, Mazzolai L, Corpataux J M, Deglise S. Eur. J. Vasc. Endovasc. Surg. 51: 733-742, 2016] and Kim S Y et al. [Kim S Y, Park K H, Gul R, Jang K Y, Kim U H. Am. J. Physiol. Renal Physiol. 296: F291-F297, 2009]\nSpecifically, 0.2 mL of 8 mg of L-NAME (Nw-nitro-L-arginine-methyl-ester, Sigma-Aldrich, USA) dissolved in 1 mL of saline was orally administered to C57BL/6J mouse every day. On days 7 and 14 of the oral administration, blood pressure was measured at the tail of the mouse. […] On day 6 after the DCQA treatment, the mouse was put in a metabolic cage and urine was collected for 24 hours.\nAfter measuring the blood pressure of the mouse (FIG. 11A), the mouse was sacrificed and serum was obtained.\nCreatinine clearance rate was calculated by measuring the creatinine levels in urine and serum using a creatinine assay kit (Bioassay Systems, USA) (FIG. 11B)."}}, "data": [{"smiles": "O=C(/C=C/c1ccc(O)c(O)c1)OC1[C@H](O)CC(OC(=O)/C=C/c2ccc(O)c(O)c2)(C(=O)O)C[C@H]1O", "note": "(stereo partly drawn) [DCQA, 1,4-dicaffeoylquinic acid]", "values": [{"measurement": "expression level of TGF-β1 increased by STZ, decreased by DCQA", "setting": "[1]", "result": "to the level of the control group"}, {"measurement": "expression level of collagen IV increased by STZ, decreased by DCQA", "setting": "[1]", "result": "to the level of the control group"}, {"measurement": "expression level of fibronectin increased by STZ, decreased by DCQA", "setting": "[1]", "result": "to the level of the control group"}, {"measurement": "blood glucose", "setting": "[2]; FIG. 6A", "result": "did not show decreased in blood glucose"}, {"measurement": "kidney to body weight", "setting": "[2]; FIG. 6B", "result": "significant decrease in kidney to body weight"}, {"measurement": "creatinine clearance rate", "setting": "[2]; FIG. 6C", "result": "significant increase in creatinine clearance rate"}, {"measurement": "urine albumin level", "setting": "[2]; FIG. 6D", "result": "significant decrease in the urine albumin level"}, {"measurement": "blood pressure", "setting": "[3]; FIG. 11A", "result": "no effect of lowering blood pressure"}, {"measurement": "creatinine clearance rate", "setting": "[3]; FIG. 11B", "result": "increase in creatinine clearance rate"}]}]}
